The test system of series [1] is UMUC3 human bladder cancer xenografts. The experiment in a line: UMUC3 bladder cancer mouse xenograft, Part B combination study. Particulars: ABI-009 3 mg/kg twice weekly IV, gemcitabine 30 mg/kg twice weekly IP.
Procedure: The anti-tumor efficacy of a panel of drugs, including mitomycin C, cisplatin, gemcitabine, valrubicin, and docetaxel, in combination with Nab-sirolimus (such as ABI-009) were evaluated and compared in a UMUC3 cell xenograft model in athymic nude mice.
Tumors were established from the UMUC3 cells as follows. Female athymic nude mice were obtained and housed in filter-topped cages supplied with autoclaved bedding. Animal handling procedures were under laminar flow hood. Each mouse was ear tagged for individual identification, and the body weight of each mouse was recorded. UMUC3 cells (10×10^6 cells per flank in 0.1 mL PBS with 20% Matrigel) were injected subcutaneously into the right flank of each mouse to implant the tumor. Tumor measurements were recorded three times per week (such as on Mondays, Wednesdays and Fridays) until tumors became approximately 60 to 160 mm^3 total. The mice were randomized for treatment once the average tumor volumes reached approximately 100 mm^2. Prior to the treatment, body weights and tumor measurements of all mice were recorded.
In the Part B combination study, athymic mice bearing UMUC3 human bladder cancer xenografts were treated until study end with ABI-009 (3 mg/kg, twice weekly, IV via tail vein), mitomycin C (0.5 mg/kg, twice weekly, IP), cisplatin (3 mg/kg, twice weekly. IP), gemcitabine (30 mg/kg, twice weekly, IP), valrubicin (20 mg/kg, twice weekly, IP), and docetaxel (3 mg/kg, twice weekly, IP) either as single agent or in combination (ABI-009 plus chemotherapeutic agent). Animals were monitored for tumor volume and body weight.
In each combination of drugs being administered comprising Nab-sirolimus and a second drug (such as MMC. Cis, GEM. Val, and Doc), the second drug was administered immediately before Nab-sirolimus. The mice were monitored during the course of the treatment by recording body weights three times per week (such as on Mondays, Wednesdays and Fridays), recording signs of distress daily, and recording tumor measurements three times per week (such as on Mondays. Wednesdays and Fridays). Measurements of tumor sizes and body weights were continued for 2 weeks following completion of the dosing regimen, or until the mouse was sacrificed when the tumor size of the mouse is more than 2000 mm^3.
The conditions of series [2]: in vivo; cited from earlier work.
The test system of the next series is ABCB1/ABCG2. Particulars: cited from earlier work.

What is called TGI is how far tumour growth fell short of that in controls. On to `Nc1ccn([C@@H]2O[C@H](CO)[C@@H](O)C2(F)F)c(=O)n1` [gemcitabine], for which, in series [1], the “animal survival compared with saline control” value is “only modest effects” and the “antitumor activity (tumor growth inhibition) compared with saline control” value was “only modest effects”. In addition, in series [1] (Log-rank test), the median survival amounted to 20 days. In series [1] (single agent or combination), the TGI turned out to be 41.7%.

Regarding `COc1ccc(COc2cc3oc(=O)c4cc(C(C)O)ccc4c3cc2OC)cc1` (stereo not drawn) [Palomid 529], the brain penetration result in series [2] is listed as “good brain penetration”. The “affinity for ABCB1/ABCG2” value with ABCB1/ABCG2 is “lacks affinity for ABCB1/ABCG2”.

These data come from patent publication US20180177771A1, “BIOMARKERS FOR NANOPARTICLE COMPOSITIONS” (priority 2015, published 2018).
